The values below come from patent publication US20170305965A1, “Fab REGION-BINDING PEPTIDE” (KANEKA CORPORATION, priority 2014, published 2017).

The subject of experiment [1] is IgG-Fab of anti-HER2 monoclonal antibody (Trastuzumab). The experiment in a line: Biacore 3000 surface plasmon resonance analysis of affinity of SpG variants for immobilized IgG-Fab. It counts as binding, human. The following applies: for KA (affinity constant, KA=kon/koff) / koff / kon: Anti-HER2 antibody - Fab immobilized on CM5, peptide 0.1-0.8 μM, 25° C., pH 7.4, 1:1 binding model; for KA Vs. Wild: ratio of KA to that of GB2*-Wild.1d, Anti-HER2 antibody - Fab. An excerpt: A humanized monoclonal IgG product as a raw material was fragmented into a Fab fragment and a Fc fragment using papain, and only the Fab fragment was separated and purified. Hereinafter, a method for producing IgG-Fab derived from anti-HER2 monoclonal antibody (generic name: Trastuzumab) is described. In the present disclosure, when other IgG-Fab was used for evaluation, the fragment was basically prepared in a similar method.
Specifically, a humanized monoclonal IgG product (“HERCEPTIN” manufactured by CHUGAI PHARMACEUTICAL CO., LTD., in the case of anti-HER2 monoclonal antibody) was dissolved in a buffer for papain treatment (0.1 M AcOH—AcONa, 2 mM EDTA, 1 mM cysteine, pH 5.5), and agarose on which papain was immobilized (“Papain Agarose from papaya latex” manufactured by SIGMA) was added thereto. The mixture was incubated with stirring by a rotator at 37° C. for about 8 hours. The IgG-Fab was purified by recovering the IgG-Fab as a flow-through fraction in an affinity chromatography using KanCapA column (manufactured by GE Healthcare Bioscience) from the reaction mixture which contained both of a Fab fragment and a Fc fragment and which was separated from the agarose on which papain was immobilized. The obtained crude IgG-Fab solution was subjected to purification by gel filtration chromatography using Superdex 75 10/300 GL column to obtain IgG-Fab solution. In the chromatography, a standard buffer was used for equilibration and separation. Similarly to the above-described Example 1, AKTAprime plus system was used in the chromatography for protein purification.
The affinity of each of the SpG-β2* variant obtained in the above-described Example 1(2) for the IgG-Fab of anti-HER2 monoclonal antibody was evaluated using a biosensor Biacore 3000 (manufactured by GE Healthcare Bioscience) utilizing surface plasmon resonance. In the present Example, the IgG-Fab obtained in the above-described Example 2(1) was immobilized on a sensor tip, and each of the peptide was flown on the tip to detect the interaction between the two. The IgG-Fab was immobilized on a sensor tip CM5 by amine coupling method using N-hydroxysuccinimide (NHS) and N-ethyl-N′-(3-dimethylaminopropyl)carbodiimide hydrochloride (EDC), and ethanolamine was used for blocking. All of the sensor tip and reagents for immobilization was manufactured by GE Healthcare Bioscience. The IgG-Fab solution was diluted to about 10 times using a buffer for immobilization (10 mM AcOH—AcONa, pH 4.5), and the IgG-Fab was immobilized on the sensor tip in accordance with the protocol attached to the Biacore 3000. In addition, a reference cell as negative control was also prepared by activating another flow cell on the tip with EDC/NHS and then immobilizing human serum albumin (manufactured by Wako Pure Chemical Industries, Ltd.). Peptide solutions of each of the SpG-β2* variant having concentrations of […] were prepared using a running buffer (20 mM NaH2PO4—Na2HPO4, 150 mM NaCl, 0.005% P-20, pH 7.4). The peptide solution was added to the sensor tip in a flow rate of 10 μL/min for 4 minutes. Bonding response curves at the time of addition (association phase, for 4 minutes) and after the addition (dissociation phase, for 4 minutes) were sequentially obtained at a measurement temperature of 25° C. After each measurement, the added peptide remaining on the sensor tip was removed by flowing the running buffer for 5 minutes or more; and about 10 mM NaOH was added for wash between the measurements if required.
However, the concentration of a protein solution was adjusted to 0.8 μM, bonding response curves at the time of adding the solution (association phase, for 1 minute) and after the addition (dissociation phase, for 2 minutes) were obtained, and a fitting analysis was carried out using one concentration of the solution.

The next experiment addresses Fab region of IgG. The following applies: cited from earlier work.

For “GB2*-T02R/E15Y.1d: two residues variant of SpG-β2* with T02R and E15Y, SEQ ID NO: 27 (TRYKLVINGKTLKGYTTTKAVDAETAERAFRQYATDNGVEGMWTYDPATKTFTVTE; SpG Mutant)”, the “binding response (bonding response curve, FIG. 3)” value in experiment [1] (protein solution 0.8 μM, raw bonding response curve compared under the same concentration) was “higher than those of GB2*-Wild.1d and GB2*-T02R.1d”.

As for “GB2*-E15W.1d: SpG-β2* one residue variant with E15W, amino acid sequence SEQ ID NO: 23 (TTYKLVINGKTLKGWTTTKAVDAETAERAFRQYATDNGVEGMWTYDPATKTFTVTE; SpG Mutant)”, in experiment [1], the “KA (affinity constant, KA=kon/koff)” value stood at 1.08e+07 M⁻¹; the koff was 0.011 s⁻¹; the kon was 119000 s/M; the “KA Vs. Wild” value is given as 4.8.

Turning to “GB2-Wild.1d: wild β2 domain of Protein G, SEQ ID NO: 2 (TTYKLVINGKTLKGETTTKAVDAETAEKAFKQYANDNGVDGVWTYDDATKTFTVTE; Streptococcus sp. GX7809)”, the Kd on Fab region of IgG (described in Table 1 of Patent Document 2, read-out: dissociation constant) was 2570 nM. The “association constant (inverse number of the dissociation constant of Patent Document 2)” value in the experiment on Fab region of IgG (inverse of the dissociation constant in Table 1 of Patent Document 2) is 400000 M⁻¹.

In the case of “GB2-E15W.1d: E15W mutation introduced into wild SpG-β2 domain, SEQ ID NO: 25 (TTYKLVINGKTLKGWTTTKAVDAETAEKAFKQYANDNGVDGVWTYDDATKTFTVTE; SpG Mutant)”, the “association constant KA” value in experiment [1] (fitting analysis using one concentration, 0.8 μM, association phase 1 minute, dissociation phase 2 minutes) stood at 1.6e+06 M⁻¹.

In the case of “GB2*-E15Y.1d: SpG-β2* one residue variant with E15Y, amino acid sequence SEQ ID NO: 21 (TTYKLVINGKTLKGYTTTKAVDAETAERAFRQYATDNGVEGMWTYDPATKTFTVTE; SpG Mutant)”, in experiment [1], the “KA (affinity constant, KA=kon/koff)” value amounted to 9.3e+06 M⁻¹; the koff worked out at 0.01 s⁻¹; the kon is 92000 s/M; the “KA Vs. Wild” value is given as 4.0.

As for “GB2*-Wild.1d: SpG β2 domain variant having excellent thermal stability, SEQ ID NO: 3; comparative example before introducing the mutation (TTYKLVINGKTLKGETTTKAVDAETAERAFRQYATDNGVEGMWTYDPATKTFTVTE; SpG Mutant) [reference compound]”, in experiment [1], the “KA (affinity constant, KA=kon/koff)” value came out at 2.3e+06 M⁻¹; the koff turned out to be 0.038 s⁻¹; the kon worked out at 88000 s/M. Besides, the “difference between association constant of the Patent Document 2 variant and association constant shown in Table 2” value in experiment [1] (GB2*-Wild.1d (Table 2) versus variant of Patent Document 2) is “about 1.4 times”.

Regarding “GB2*-T02R.1d: SpG-β2* one residue variant with T02R, amino acid sequence SEQ ID NO: 19 (TRYKLVINGKTLKGETTTKAVDAETAERAFRQYATDNGVEGMWTYDPATKTFTVTE; SpG Mutant)”, in experiment [1], the “KA (affinity constant, KA=kon/koff)” value worked out at 9.8e+06 M⁻¹; the off-rate constant (koff) turned out to be 0.01 s⁻¹; the kon came out at 98000 s/M; the “KA Vs. Wild” value was found to be 4.3.
